System: endogenous SSPN protein with an N-term fusion protein (C2C12 cells)
Experiment: C2C12 HiBiT assay (SSPN-HiBiT myotubes, primary screen)
Assay type: cell-based, murine
Conditions: treated day 2, harvested day 4 of differentiation, concentration not given
Experimental: FIG. 1. Activity of DDL-463, DDL-465 (A) and DDL-472 (B) in HiBiT assay. Comparison of activity of the new compounds with parent compound (OT-9m) and vehicle-treated cells. SSPN-HiBiT myotubes were treated on day 2 and harvested on day 4 of differentiation. R.U.=relative units normalized to protein concentration and vehicle control (DMSO). n=18. **p<0.01, ****p<0.0001, ns-difference is non-significant from the vehicle-treated cells.
(§1) Comparison of activity of the new compounds of quinolone series (DDL-494, DDL-495, DDL-496) with parent compound (DDL-449 (aka OT-9m)) and vehicle-treated cells. SSPN-HiBiT myotubes were treated on day 2 and harvested on day 4 of differentiation. R.U.=relative units normalized to protein concentration and vehicle control (DMSO). n=18 for every compound concentration. *p<0.05; **p<0.01, ***p<0.001; ****p<0.0001
as §1, with “compound” for “compounds”, “coumarin” for “quinolone”, “(DDL-491)” for “(DDL-494, DDL-495, DDL-496)”, “(DDL-472)” for “(DDL-449 (aka OT-9m))”, “*p<0.05;” for “*p<0.05; **p<0.01, ***p<0.001;”
To assess activity of the new molecules, a C2C12 HiBiT assay was used as a primary screen. This assay is based on murine C2C12 cell line expressing endogenous SSPN protein with an N-term fusion protein described previously in WO 2022/055926.
Details on development of HiBiT assay for rapid testing of new analogues in vitro (FIG. 2A, B) are provided in PCT Pub. No. WO 2022/055926.

| Structure (SMILES) | SSPN-HiBiT fold change over vehicle |
| --- | --- |
| COc1ccc2[nH]c(=O)c(C(=O)NC3=NNC(C(=O)N4CCCOCC4)N3)cc2c1 (stereo not drawn) [DDL-458] | ~1 fold |
| COc1ccc2[nH]c(=O)c(C(=O)Nc3c[nH]c(C(=O)N4CCCOCC4)n3)cc2c1 [DDL-459, N-(2-(1,4-oxazepane-4-carbonyl)-1H-imidazol-4-yl)-6-methoxy-2-oxo-1,2-dihydroquinoline-3-carboxamide] | ~1 fold |
| COc1ccc2cc(C(=O)Nc3ccc(C(=O)N4CCCOCC4)cc3)c(=O)[nH]c2c1 [DDL-460] | 1.1 fold |
| COc1cc2cc(C(=O)Nc3ccc(C(=O)N4CCCOCC4)cc3)c(=O)[nH]c2cc1OC [DDL-461] | 1.1 fold |
| O=C(Nc1ccc(C(=O)N2CCCOCC2)cc1)c1cc2ccccc2[nH]c1=O [DDL-462] | ~1 fold |
| O=C(Nc1ccc(C(=O)N2CCCOCC2)cc1)c1cc2cc(F)ccc2[nH]c1=O [DDL-463] | 1.4 fold |
| O=C(Nc1ccc(C(=O)N2CCCOCC2)cc1)c1cc2ccc(F)cc2[nH]c1=O [DDL-464] | ~1 fold |
| CC(=O)Nc1ccc2[nH]c(=O)c(C(=O)Nc3ccc(C(=O)N4CCCOCC4)cc3)cc2c1 [DDL-476] | ~1 fold |
| CC(C)Oc1ccc2cc(C(=O)Nc3ccc(C(=O)N4CCCOCC4)cc3)c(=O)oc2c1 [DDL-481] | ~0.9 fold |
| O=C(Nc1ccc(C(=O)N2CCCOCC2)cc1)c1cc2ccc(N3CCOCC3)cc2oc1=O [DDL-482] | ~1 fold |
| CN(C)c1ccc2cc(C(=O)Nc3ccc(C(=O)N4CCCOCC4)cc3)c(=O)oc2c1 [DDL-484] | 1.1 fold |
| C#CCN(CC)c1ccc2cc(C(=O)Nc3ccc(C(=O)N4CCCOCC4)cc3)c(=O)oc2c1 [DDL-489] | 1.2 fold |
| CC(C)N(c1ccc2cc(C(=O)Nc3ccc(C(=O)N4CCCOCC4)cc3)c(=O)oc2c1)C(C)C [DDL-491] | 1.4 fold |
| O=C(Nc1ccc(C(=O)N2CCCOCC2)cc1)c1cc2cc(Br)ccc2[nH]c1=O [DDL-496] | 1.3 fold |
| CC(C)Oc1ccc2[nH]c(=O)c(C(=O)Nc3ccc(C(=O)N4CCCOCC4)cc3)cc2c1 [DDL-762] | 1.4 fold |

Same assay, conditions: treated day 2, harvested day 4 of differentiation, vs vehicle

| Structure (SMILES) | activity in HiBiT assay |
| --- | --- |
| O=C(Nc1ccc(C(=O)N2CCCOCC2)cc1)c1cc2cc(F)ccc2[nH]c1=O [DDL-463] | exhibit activity |
| CC(C)N(c1ccc2cc(C(=O)Nc3ccc(C(=O)N4CCCOCC4)cc3)c(=O)oc2c1)C(C)C [DDL-491] | active |
| O=C(Nc1ccc(C(=O)N2CCCOCC2)cc1)c1cc2cc(Br)ccc2[nH]c1=O [DDL-496] | active |
